Columns and labels:
BaF3 [1] = test: Antiproliferative activity against mouse BaF3 cells harboring EGFR C797S/Del19/T790M mutant; assay type: functional, cell-based
BaF3 [2] = test: Antiproliferative activity against mouse BaF3 cells harboring EGFR C797S/L858R/T790M mutant; assay type: functional, cell-based
[3] = molecular target: Epidermal growth factor receptor (Homo sapiens, UniProt P00533); test: Inhibition of wild-type EGFR (unknown origin)
[4] = molecular target: Epidermal growth factor receptor (Homo sapiens, UniProt P00533, C797S/L858R/T790M); test: Inhibition of EGFR C797S/T790M/L858R mutant (unknown origin)
Sequence of Epidermal growth factor receptor (Homo sapiens, UniProt P00533, C797S/L858R/T790M) (P00533 25-1210 T790M/C797S/L858R limits assumed): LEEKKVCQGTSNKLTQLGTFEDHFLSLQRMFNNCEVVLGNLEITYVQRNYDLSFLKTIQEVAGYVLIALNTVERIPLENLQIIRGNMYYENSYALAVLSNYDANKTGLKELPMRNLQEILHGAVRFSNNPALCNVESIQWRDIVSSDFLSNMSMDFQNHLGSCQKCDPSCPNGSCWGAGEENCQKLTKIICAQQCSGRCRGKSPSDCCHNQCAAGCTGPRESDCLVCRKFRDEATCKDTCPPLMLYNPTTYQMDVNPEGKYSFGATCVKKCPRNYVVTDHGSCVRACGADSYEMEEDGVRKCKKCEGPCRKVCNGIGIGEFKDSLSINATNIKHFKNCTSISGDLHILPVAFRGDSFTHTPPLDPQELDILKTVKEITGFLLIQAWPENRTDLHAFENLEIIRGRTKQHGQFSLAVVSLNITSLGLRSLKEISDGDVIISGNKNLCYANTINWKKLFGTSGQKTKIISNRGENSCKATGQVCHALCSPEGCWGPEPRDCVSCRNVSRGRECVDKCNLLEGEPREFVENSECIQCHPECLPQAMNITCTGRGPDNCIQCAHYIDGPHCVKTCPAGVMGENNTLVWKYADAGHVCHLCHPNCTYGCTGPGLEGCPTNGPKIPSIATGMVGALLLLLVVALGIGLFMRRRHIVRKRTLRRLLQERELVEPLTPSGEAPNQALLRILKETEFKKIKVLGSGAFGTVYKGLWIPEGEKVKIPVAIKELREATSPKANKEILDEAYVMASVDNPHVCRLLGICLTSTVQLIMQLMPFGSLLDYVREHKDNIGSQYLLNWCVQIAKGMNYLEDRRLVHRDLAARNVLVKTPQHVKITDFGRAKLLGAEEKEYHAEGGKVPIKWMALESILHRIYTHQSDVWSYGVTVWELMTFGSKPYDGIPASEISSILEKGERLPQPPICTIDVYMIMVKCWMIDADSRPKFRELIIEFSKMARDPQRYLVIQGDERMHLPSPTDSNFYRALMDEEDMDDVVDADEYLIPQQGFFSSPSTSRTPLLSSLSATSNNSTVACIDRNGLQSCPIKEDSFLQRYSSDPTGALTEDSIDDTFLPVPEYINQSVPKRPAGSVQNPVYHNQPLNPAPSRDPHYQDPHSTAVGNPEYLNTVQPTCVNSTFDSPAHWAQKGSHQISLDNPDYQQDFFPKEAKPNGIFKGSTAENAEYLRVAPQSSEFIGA

[5] = molecular target: Epidermal growth factor receptor (Homo sapiens, UniProt P00533, L858R/T790M); test: Inhibition of EGFR T790M/L858R mutant (unknown origin)
Sequence of Epidermal growth factor receptor (Homo sapiens, UniProt P00533, L858R/T790M) (P00533 25-1210 T790M/L858R limits assumed): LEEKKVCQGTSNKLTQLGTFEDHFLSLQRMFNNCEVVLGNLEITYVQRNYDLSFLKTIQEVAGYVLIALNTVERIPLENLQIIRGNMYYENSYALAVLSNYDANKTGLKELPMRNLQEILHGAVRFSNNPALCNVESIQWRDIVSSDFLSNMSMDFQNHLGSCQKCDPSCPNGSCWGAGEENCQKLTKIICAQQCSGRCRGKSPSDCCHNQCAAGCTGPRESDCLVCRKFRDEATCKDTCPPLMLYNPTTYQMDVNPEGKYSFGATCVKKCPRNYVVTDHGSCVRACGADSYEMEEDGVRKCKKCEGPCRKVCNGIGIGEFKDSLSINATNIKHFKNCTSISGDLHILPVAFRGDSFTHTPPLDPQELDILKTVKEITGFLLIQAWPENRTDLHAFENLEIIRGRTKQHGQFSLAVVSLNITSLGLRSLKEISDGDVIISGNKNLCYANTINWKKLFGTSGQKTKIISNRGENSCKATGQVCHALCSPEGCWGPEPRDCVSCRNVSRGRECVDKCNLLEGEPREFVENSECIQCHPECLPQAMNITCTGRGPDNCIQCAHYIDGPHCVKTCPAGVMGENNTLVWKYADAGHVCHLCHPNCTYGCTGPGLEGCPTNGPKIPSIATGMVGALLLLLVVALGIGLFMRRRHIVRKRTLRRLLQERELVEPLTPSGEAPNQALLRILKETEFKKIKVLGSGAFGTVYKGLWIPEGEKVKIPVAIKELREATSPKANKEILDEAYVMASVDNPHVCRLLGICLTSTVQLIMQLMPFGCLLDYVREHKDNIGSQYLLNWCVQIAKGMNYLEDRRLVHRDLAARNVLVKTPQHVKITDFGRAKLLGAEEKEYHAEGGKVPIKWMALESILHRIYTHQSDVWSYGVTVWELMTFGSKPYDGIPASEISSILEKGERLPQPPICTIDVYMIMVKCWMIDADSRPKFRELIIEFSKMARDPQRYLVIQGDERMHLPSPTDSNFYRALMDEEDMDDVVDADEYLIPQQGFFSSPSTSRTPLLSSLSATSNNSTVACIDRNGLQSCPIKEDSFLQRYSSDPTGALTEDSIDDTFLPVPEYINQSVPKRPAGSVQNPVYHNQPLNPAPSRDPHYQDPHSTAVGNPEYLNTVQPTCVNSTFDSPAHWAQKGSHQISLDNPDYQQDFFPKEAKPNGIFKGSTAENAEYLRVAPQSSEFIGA

[6] = molecular target: Epidermal growth factor receptor (Homo sapiens, UniProt P00533, C797S/EX19DEL/T790M); test: Inhibition of EGFR C797S/T790M/Del19 mutant (unknown origin)
Sequence of Epidermal growth factor receptor (Homo sapiens, UniProt P00533, C797S/EX19DEL/T790M) (P00533 whole entry, looked up, stated change not applied): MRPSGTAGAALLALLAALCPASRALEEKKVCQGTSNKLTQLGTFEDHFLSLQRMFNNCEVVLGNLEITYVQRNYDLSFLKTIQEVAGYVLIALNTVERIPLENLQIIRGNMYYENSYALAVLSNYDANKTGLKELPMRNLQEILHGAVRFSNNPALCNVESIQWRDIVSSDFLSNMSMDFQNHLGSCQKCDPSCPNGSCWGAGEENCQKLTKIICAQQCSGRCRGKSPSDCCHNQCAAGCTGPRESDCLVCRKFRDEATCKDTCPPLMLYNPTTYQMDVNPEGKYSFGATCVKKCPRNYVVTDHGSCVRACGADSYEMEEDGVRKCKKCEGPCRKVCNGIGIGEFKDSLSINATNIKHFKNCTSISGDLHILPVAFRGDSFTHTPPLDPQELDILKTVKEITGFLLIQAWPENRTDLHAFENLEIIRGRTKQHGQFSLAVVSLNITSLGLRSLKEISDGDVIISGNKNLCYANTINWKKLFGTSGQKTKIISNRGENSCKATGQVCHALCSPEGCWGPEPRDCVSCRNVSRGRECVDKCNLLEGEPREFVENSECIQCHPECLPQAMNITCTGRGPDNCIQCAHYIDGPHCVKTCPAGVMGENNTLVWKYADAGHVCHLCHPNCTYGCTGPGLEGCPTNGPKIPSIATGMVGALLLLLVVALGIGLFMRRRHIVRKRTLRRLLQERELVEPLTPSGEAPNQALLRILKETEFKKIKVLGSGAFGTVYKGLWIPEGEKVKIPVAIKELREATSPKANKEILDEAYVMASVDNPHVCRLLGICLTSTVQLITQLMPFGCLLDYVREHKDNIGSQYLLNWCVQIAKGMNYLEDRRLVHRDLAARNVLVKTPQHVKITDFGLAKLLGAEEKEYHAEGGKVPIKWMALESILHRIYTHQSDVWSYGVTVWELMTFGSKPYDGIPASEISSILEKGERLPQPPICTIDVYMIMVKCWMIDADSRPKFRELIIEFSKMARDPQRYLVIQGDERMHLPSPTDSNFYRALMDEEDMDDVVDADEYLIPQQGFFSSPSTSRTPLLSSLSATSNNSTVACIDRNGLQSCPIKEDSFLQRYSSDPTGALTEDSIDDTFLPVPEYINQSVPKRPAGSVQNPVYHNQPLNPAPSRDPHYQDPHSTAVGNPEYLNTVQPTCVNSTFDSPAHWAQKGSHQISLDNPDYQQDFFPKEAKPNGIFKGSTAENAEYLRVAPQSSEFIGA

[7] = Cytotoxicity against VEGF-stimulated human HUVEC cells; assay type: toxicity, cell-based
[8] = Toxicity in nude mouse xenografted with human NCI-H1975 cells assessed as body weight loss at 25 mg/kg, po measured for 7 days; assay type: organism-based; conditions: in vivo, 168 h, time 7 day
[9] = Cytotoxicity against human HaCaT cells; assay type: toxicity, cell-based
[10] = Cytotoxicity against human HUVEC cells; assay type: toxicity, cell-based
[11] = Cytotoxicity against human HK-2 cells; assay type: toxicity, cell-based
BaF3 [12] = test: Inhibition of cell growth in mouse BaF3 cells harboring EGFR del19/T790M/C797S mutant incubated for 72 hrs by fluorescence based assay; assay type: functional; conditions: BaF3, 72 h
BaF3 [13] = test: Inhibition of cell proliferation in mouse BaF3 cells harboring EGFR L858R/T790M mutant incubated for 72 hrs by MTS assay; assay type: functional, cell-based; conditions: BaF3, 72 h
[14] = Cytotoxicity against human L02 cells; assay type: toxicity, cell-based
BaF3 [15] = test: Inhibition of cell growth in mouse BaF3 cells harboring EGFR L858R/T790M/C797S mutant; assay type: functional, cell-based
BaF3 [16] = test: Inhibition of cell growth in mouse BaF3 cells harboring EGFR del19/T790M/C797S mutant; assay type: functional, cell-based

Sequence of Epidermal growth factor receptor (Homo sapiens, UniProt P00533) (P00533 whole entry): as the sequence (P00533 whole entry, looked up, stated change not applied) above

| SMILES | IC50 (BaF3 [1]) [µM] | IC50 (BaF3 [2]) [µM] | other results |
| --- | --- | --- | --- |
| O=S(=O)(Nc1ccccc1Nc1nc(Nc2cccc3[nH]ccc23)ncc1Cl)C1CC1 | 0.185 | 0.196 |  |
| Cn1ccc2c(Nc3ncc(Cl)c(Nc4ccccc4NS(=O)(=O)C4CC4)n3)cccc21 | 0.199 | 0.211 |  |
| Cn1ccc2ccc(Nc3ncc(Br)c(Nc4ccccc4NS(=O)(=O)C4CC4)n3)cc21 | 0.271 | 0.257 |  |
| CCS(=O)(=O)Nc1cc(Nc2ncc(Br)c(Nc3ccccc3NS(=O)(=O)C3CC3)n2)ccc1N1CCC(N(C)C)CC1 | 0.608 | 0.613 |  |
| Cn1cnc2ccc(Nc3ncc(Br)c(Nc4ccccc4NS(=O)(=O)C4CC4)n3)cc21 | 0.115 | 0.103 |  |
| CN(C)C1CCN(c2ccc(Nc3ncc(Cl)c(Nc4ccccc4NS(=O)(=O)C4CC4)n3)cc2)CC1 | 0.011 | 0.015 |  |
| CN(C)CCN(C)c1ccc(Nc2ncc(Br)c(Nc3ccccc3NS(=O)(=O)C3CC3)n2)cc1 | 0.013 | 0.015 |  |
| CN(C)CCN(C)c1ccc(Nc2ncc(Cl)c(Nc3ccccc3NS(=O)(=O)C3CC3)n2)cc1 | 0.024 | 0.028 |  |
| Cc1cc(Nc2ncc(Br)c(Nc3ccccc3NS(=O)(=O)C3CC3)n2)ccc1N1CCCN(C)CC1 | 0.001 | 0.001 | IC50 [3]: 0.0613 µM; IC50 [4]: 0.00028 µM; IC50 [5]: 0.0102 µM; IC50 [6]: 0.0003 µM |
| Cc1cc(Nc2ncc(Cl)c(Nc3ccccc3NS(=O)(=O)C3CC3)n2)ccc1N1CCC(N(C)C)CC1 | 0.001 | 0.002 | IC50 [3]: 0.0687 µM; IC50 [4]: 0.00037 µM; IC50 [5]: 0.0126 µM; IC50 [6]: 0.00029 µM |
| COc1cc(N2CCC(N(C)C)CC2)ccc1Nc1ncc(Br)c(Nc2ccccc2NS(=O)(=O)C2CC2)n1 | 0.075 | 0.079 |  |
| C=CC(=O)Nc1cc(Nc2nccc(-c3cn(C)c4ccccc34)n2)c(OC)cc1N(C)CCN(C)C [OSIMERTINIB] |  |  | IC50 [7]: 2.4 µM; Activity [8]: Toxic; IC50 [9]: 3.36 µM; IC50 [10]: 2.4 µM; IC50 [11]: 2.14 µM |
| CN1CCCN(c2ccc(Nc3ncc(Cl)c(Nc4ccccc4NS(=O)(=O)C4CC4)n3)cc2NS(=O)(=O)C2CC2)CC1 | 0.407 | 0.413 |  |
| Cc1cc(Nc2ncc(Cl)c(Nc3ccccc3NS(=O)(=O)C3CC3)n2)ccc1N1CCCN(C)CC1 | 0.008 | 0.004 |  |
| CN(C)CCn1ccc2cccc(Nc3ncc(Cl)c(Nc4ccccc4NS(=O)(=O)C4CC4)n3)c21 | 0.342 | 0.356 |  |
| CN(C)C1CCN(c2ccc(Nc3ncc(Br)c(Nc4ccccc4NS(=O)(=O)C4CC4)n3)cc2)CC1 | 0.004 | 0.004 |  |
| CCS(=O)(=O)Nc1cc(Nc2ncc(Br)c(Nc3ccccc3NS(=O)(=O)C3CC3)n2)ccc1N1CCCN(C)CC1 | 0.635 | 0.631 |  |
| CN1CCCN(c2ccc(Nc3ncc(Cl)c(Nc4ccccc4NS(=O)(=O)C4CC4)n3)cc2NS(C)(=O)=O)CC1 | 0.712 | 0.723 |  |
| CN1CCCN(c2ccc(Nc3ncc(Br)c(Nc4ccccc4NS(=O)(=O)C4CC4)n3)cc2NS(C)(=O)=O)CC1 | 0.775 | 0.791 |  |
| COc1cc(N2CCCN(C)CC2)ccc1Nc1ncc(Cl)c(Nc2ccccc2NS(=O)(=O)C2CC2)n1 | 0.079 | 0.082 |  |
| COc1cc(N2CCC(N(C)C)CC2)ccc1Nc1ncc(Cl)c(Nc2ccccc2NS(=O)(=O)C2CC2)n1 | 0.101 | 0.098 |  |

| SMILES | IC50 (BaF3 [1]) [µM] | IC50 (BaF3 [2]) [µM] | other results |
| --- | --- | --- | --- |
| COc1cc(N2CCC(N3CCN(C)CC3)CC2)ccc1Nc1ncc(Cl)c(Nc2ccccc2NS(C)(=O)=O)n1 |  |  | IC50 (BaF3 [12]): 0.027 µM |
| O=S(=O)(Nc1ccccc1Nc1nc(Nc2cccc3[nH]cnc23)ncc1Cl)C1CC1 | 0.191 | 0.175 |  |
| CN(C)C1CCN(c2ccc(Nc3ncc(Br)c(Nc4ccccc4NS(=O)(=O)C4CC4)n3)cc2NS(=O)(=O)C2CC2)CC1 | 0.41 | 0.398 |  |
| COc1cc(N2CCCN(C)CC2)ccc1Nc1ncc(Br)c(Nc2ccccc2NS(=O)(=O)C2CC2)n1 | 0.065 | 0.067 |  |
| CCS(=O)(=O)Nc1cc(Nc2ncc(Cl)c(Nc3ccccc3NS(=O)(=O)C3CC3)n2)ccc1N1CCCN(C)CC1 | 0.682 | 0.698 |  |
| O=C(Nc1nccs1)C(c1cc(F)ccc1O)N1Cc2ccccc2C1=O (stereo unspecified) |  |  | IC50 (BaF3 [13]): ~0.01 µM |
| Cn1ccc2ccc(Nc3ncc(Cl)c(Nc4ccccc4NS(=O)(=O)C4CC4)n3)cc21 | 0.274 | 0.284 |  |
| Cn1cnc2ccc(Nc3ncc(Cl)c(Nc4ccccc4NS(=O)(=O)C4CC4)n3)cc21 | 0.198 | 0.185 |  |
| Cc1cc(Nc2ncc(Br)c(Nc3ccccc3NS(=O)(=O)C3CC3)n2)ccc1N1CCC(N(C)C)CC1 | 0.004 | 0.003 |  |
| O=S(=O)(Nc1ccccc1Nc1nc(Nc2cccc3[nH]ccc23)ncc1Br)C1CC1 | 0.159 | 0.124 |  |
| CN(C)CCn1ccc2cccc(Nc3ncc(Br)c(Nc4ccccc4NS(=O)(=O)C4CC4)n3)c21 | 0.388 | 0.324 |  |
| Cn1ccc2c(Nc3ncc(Br)c(Nc4ccccc4NS(=O)(=O)C4CC4)n3)cccc21 | 0.177 | 0.183 |  |
| CN1CCCN(c2ccc(Nc3ncc(Br)c(Nc4ccccc4NS(=O)(=O)C4CC4)n3)cc2NS(=O)(=O)C2CC2)CC1 | 0.351 | 0.377 |  |
| CN(C)C1CCN(c2ccc(Nc3ncc(Cl)c(Nc4ccccc4NS(=O)(=O)C4CC4)n3)cc2NS(C)(=O)=O)CC1 | 0.795 | 0.844 |  |
| CN(C)C1CCN(c2ccc(Nc3ncc(Br)c(Nc4ccccc4NS(=O)(=O)C4CC4)n3)cc2NS(C)(=O)=O)CC1 | 0.769 | 0.785 |  |
| COc1cc(N2CCC(N3CCN(C)CC3)CC2)ccc1Nc1ncc(Cl)c(Nc2ccccc2P(C)(C)=O)n1 [BRIGATINIB] | 0.065 | 0.071 | IC50 [7]: 2.4 µM; IC50 [9]: 5.02 µM; IC50 [10]: 2.17 µM; IC50 [11]: 2.13 µM; IC50 [14]: 1.4 µM |
| Cc1cc(Nc2ncc(Br)c(Nc3ccccc3NS(=O)(=O)C3CC3)n2)ccc1N(C)CCN(C)C | 0.015 | 0.017 |  |
| CN1CCN(c2ccc(Nc3ncc(Cl)c(Nc4ccccc4P(C)(C)=O)n3)cc2Br)CC1 |  |  | IC50 (BaF3 [15]): 0.0031 µM; IC50 (BaF3 [16]): 0.0024 µM |
| Cc1cc(Nc2ncc(Cl)c(Nc3ccccc3NS(=O)(=O)C3CC3)n2)ccc1N(C)CCN(C)C | 0.022 | 0.029 |  |
| CN1CCCN(c2ccc(Nc3ncc(Cl)c(Nc4ccccc4NS(=O)(=O)C4CC4)n3)cc2)CC1 | 0.008 | 0.01 |  |

Reference: ChEMBL document CHEMBL5579839, “Discovery of new cyclopropane sulfonamide derivatives as EGFR inhibitors to overcome C797S-mediated resistance and EGFR double mutation” (Eur J Med Chem, 2024)
